# Measured values from patent publication US20040142910A1, “Sulfonated styrene copolymers for medical uses” (Aegis Biosciences LLC, priority 2002, published 2004).
# Assays:
# [1] = test system: calf pulmonary artery ECs (CPAECs); test: endothelial cell proliferation in the absence of fibrin; format: cell-based; settings: SNAP 0.1 and 0.4 mmol/L, L-NAME, L-NMMA 1 mmol/L
# Experimental: (§1) Angiogenesis is a complex process that involves the activation of quiescent endothelial cells (ECs) to a proliferative and migratory phenotype and, subsequently, their redifferentiation to form vascular tubes. We hypothesized that NO contributes to angiogenesis by terminating the proliferative action of angiogenic growth factors and initiating a genetic program of EC differentiation. Human umbilical vein ECs (HUVECs) and calf pulmonary artery ECs (CPAECs) were grown directly on plastic dishes or on three-dimensional fibrin matrices. […] The addition of basic fibroblast growth factor (bFGF, […]) increased the expression of endothelial NO synthase mRNA and the production of NO in both cell types when cultured on three-dimensional fibrin gels and produced profound morphological changes characterized by the appearance of extensive capillary-like vascular structures and the loss of EC monolayers. These changes were quantified by measuring total tube length per low-power field (X 100), and a differentiation index was derived using the ratio of tube length over area covered by residual EC monolayer. In the absence of additional angiogenic factors, the differentiation index was low for both HUVECs and CPAECs (control, 1.16plus or minus0.19 and 2.07plus or minus0.87, respectively).
# [2] = test system: Human umbilical vein ECs (HUVECs); test: as above; format: cell-based; settings: SNAP 0.1 and 0.4 mmol/L
# Experimental: as §1
# endothelial cells (ECs) = test: EC tube formation in response to bFGF; format: cell-based
# Experimental: as §1
# [3] = treatment of asthma; cited from earlier work
# [4] = test system: calf pulmonary artery ECs (CPAECs); test: EC differentiation on three-dimensional fibrin gels; format: cell-based; settings: bFGF 30 ng/nL
# Experimental: as §1
# [5] = test system: Human umbilical vein ECs (HUVECs); test: as above; format: cell-based; settings: bFGF 30 ng/nL
# Experimental: as §1
molecule,measurement,setting,value
"CC(=O)N[C@H](C(=O)O)C(C)(C)SN=O (racemic) [SNAP, S-nitroso-N-acetylpenicillamine]",proliferation,[1],dose-dependent inhibition
same,proliferation,[2],dose-dependent inhibition
"COC(=O)[C@@H](N)CCCNC(=N)N[N+](=O)[O-] [L-NAME, N(G)-nitro-L-arginine methyl ester]",proliferation,[1],significantly increased
same,EC tube formation in response to bFGF,endothelial cells (ECs),inhibited EC tube formation
"CNC(=N)NCCC[C@H](N)C(=O)O [L-NMMA, N(G)-monomethyl-L- arginine]",proliferation,[1],significantly increased
Cn1c(=O)c2[nH]cnc2n(C)c1=O [theophylline],minimum effective blood concentrations,[3],6 to 10 µg/mL
bFGF: basic fibroblast growth factor,expression of endothelial NO synthase mRNA and production of NO,[4],increased
same,expression of endothelial NO synthase mRNA and production of NO,[5],increased
